Test results published in the kinase profiling compilation of Christmann-Franck et al. (2016).

What was measured:
Assay in all cases: KINOMEscan competition binding
Conditions in all cases: compound 10.0 µM
[1] = test system: ABL1 (human), P00519 [E255K]
[2] = test system: ABL1 (human), P00519 [F317I]
ACVRL1 (human) = ACVRL1 (human) (UniProt P37023)
ADCK4 (human) = ADCK4 (human) (UniProt Q96D53)
CAMK4 (human) = CAMK4 (human) (UniProt Q16566)
CDK2 (human) = CDK2 (human) (UniProt P24941)
CDKL2 (human) = CDKL2 (human) (UniProt Q92772)
CSK (human) = CSK (human) (UniProt P41240)
EPHB3 (human) = EPHB3 (human) (UniProt P54753)
ERBB4 (human) = ERBB4 (human) (UniProt Q15303)
ERN1 (human) = ERN1 (human) (UniProt O75460)
[3] = test system: FGFR3 (human), P22607 [G697C]
FYN (human) = FYN (human) (UniProt P06241)
GRK1 (human) = GRK1 (human) (UniProt Q15835)
GRK7 (human) = GRK7 (human) (UniProt Q8WTQ7)
IRAK3 (human) = IRAK3 (human) (UniProt Q9Y616)
[4] = biological target: JAK1 JH2 pseudokinase (human) (UniProt P23458)
[5] = test system: KIT (human), P10721 [V559D/V654A]
LIMK2 (human) = LIMK2 (human) (UniProt P53671)
MAP2K1 (human) = MAP2K1 (human) (UniProt Q02750)
MAP3K1 (human) = MAP3K1 (human) (UniProt Q13233)
MAP3K13 (human) = MAP3K13 (human) (UniProt O43283)
MAP3K3 (human) = MAP3K3 (human) (UniProt Q99759)
MAPK1 (human) = MAPK1 (human) (UniProt P28482)
MAPK14 (human) = MAPK14 (human) (UniProt Q16539)
MAPK15 (human) = MAPK15 (human) (UniProt Q8TD08)
MERTK (human) = MERTK (human) (UniProt Q12866)
MST1R (human) = MST1R (human) (UniProt Q04912)
MYLK3 (human) = MYLK3 (human) (UniProt Q32MK0)
MYO3B (human) = MYO3B (human) (UniProt Q8WXR4)
PIM1 (human) = PIM1 (human) (UniProt P11309)
PRKAA1 (human) = PRKAA1 (human) (UniProt Q13131)
PRKD2 (human) = PRKD2 (human) (UniProt Q9BZL6)
SLK (human) = SLK (human) (UniProt Q9H2G2)
SRPK2 (human) = SRPK2 (human) (UniProt P78362)
STK33 (human) = STK33 (human) (UniProt Q9BYT3)
TBK1 (human) = TBK1 (human) (UniProt Q9UHD2)
TXK (human) = TXK (human) (UniProt P42681)
[6] = biological target: TYK2 JH1 catalytic (human) (UniProt P29597)
ULK1 (human) = ULK1 (human) (UniProt O75385)
ZAP70 (human) = ZAP70 (human) (UniProt P43403)

MAPK15 (human), sequence (Q8TD08 whole entry, looked up): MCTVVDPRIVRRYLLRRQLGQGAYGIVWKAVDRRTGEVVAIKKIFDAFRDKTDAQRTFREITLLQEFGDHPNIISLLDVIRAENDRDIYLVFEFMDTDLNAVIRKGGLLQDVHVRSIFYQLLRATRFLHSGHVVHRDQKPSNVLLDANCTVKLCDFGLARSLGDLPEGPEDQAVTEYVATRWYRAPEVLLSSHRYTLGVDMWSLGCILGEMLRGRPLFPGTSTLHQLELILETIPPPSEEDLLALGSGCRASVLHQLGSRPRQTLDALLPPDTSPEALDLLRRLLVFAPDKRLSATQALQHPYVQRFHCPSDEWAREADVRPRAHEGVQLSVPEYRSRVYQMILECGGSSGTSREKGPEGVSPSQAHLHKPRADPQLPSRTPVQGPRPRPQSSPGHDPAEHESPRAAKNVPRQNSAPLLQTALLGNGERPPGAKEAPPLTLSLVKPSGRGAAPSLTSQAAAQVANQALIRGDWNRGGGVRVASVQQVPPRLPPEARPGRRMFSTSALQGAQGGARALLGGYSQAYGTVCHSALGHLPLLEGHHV
TXK (human), sequence (P42681 whole entry, looked up): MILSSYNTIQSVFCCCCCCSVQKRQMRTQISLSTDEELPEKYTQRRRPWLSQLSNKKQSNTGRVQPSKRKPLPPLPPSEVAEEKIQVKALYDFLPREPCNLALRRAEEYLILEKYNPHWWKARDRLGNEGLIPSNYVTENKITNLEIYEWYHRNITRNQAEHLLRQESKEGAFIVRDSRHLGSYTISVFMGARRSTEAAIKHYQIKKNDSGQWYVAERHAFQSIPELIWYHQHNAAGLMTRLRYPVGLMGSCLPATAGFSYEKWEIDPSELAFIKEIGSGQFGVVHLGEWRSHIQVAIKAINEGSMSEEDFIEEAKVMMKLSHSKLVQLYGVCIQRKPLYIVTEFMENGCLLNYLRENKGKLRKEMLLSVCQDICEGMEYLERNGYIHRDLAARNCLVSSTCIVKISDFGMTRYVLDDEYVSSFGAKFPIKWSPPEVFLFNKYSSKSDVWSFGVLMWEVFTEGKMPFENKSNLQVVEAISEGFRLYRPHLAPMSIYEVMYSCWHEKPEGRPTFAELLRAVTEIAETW
FGFR3 (human), P22607 [G697C], sequence (P22607 whole entry G697C, looked up): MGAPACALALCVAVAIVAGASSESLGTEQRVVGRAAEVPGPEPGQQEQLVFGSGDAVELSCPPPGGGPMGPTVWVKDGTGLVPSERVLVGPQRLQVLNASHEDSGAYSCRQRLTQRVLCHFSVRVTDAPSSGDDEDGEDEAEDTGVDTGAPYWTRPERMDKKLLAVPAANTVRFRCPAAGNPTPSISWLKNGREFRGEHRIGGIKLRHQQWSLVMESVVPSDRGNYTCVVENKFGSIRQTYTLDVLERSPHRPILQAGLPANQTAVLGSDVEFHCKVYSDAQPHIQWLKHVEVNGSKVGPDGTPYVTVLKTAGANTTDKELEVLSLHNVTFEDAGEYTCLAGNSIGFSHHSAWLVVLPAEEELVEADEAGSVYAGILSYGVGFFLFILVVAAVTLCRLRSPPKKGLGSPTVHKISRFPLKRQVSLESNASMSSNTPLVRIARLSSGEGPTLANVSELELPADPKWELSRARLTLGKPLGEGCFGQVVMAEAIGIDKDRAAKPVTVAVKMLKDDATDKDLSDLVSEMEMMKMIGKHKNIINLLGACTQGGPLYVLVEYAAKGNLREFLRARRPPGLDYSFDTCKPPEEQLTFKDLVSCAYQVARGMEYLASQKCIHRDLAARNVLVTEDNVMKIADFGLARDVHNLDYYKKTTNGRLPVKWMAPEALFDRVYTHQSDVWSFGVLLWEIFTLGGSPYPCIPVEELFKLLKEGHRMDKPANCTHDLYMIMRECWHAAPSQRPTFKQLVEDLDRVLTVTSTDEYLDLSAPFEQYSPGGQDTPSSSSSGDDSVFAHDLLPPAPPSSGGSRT
LIMK2 (human), sequence (P53671 whole entry, looked up): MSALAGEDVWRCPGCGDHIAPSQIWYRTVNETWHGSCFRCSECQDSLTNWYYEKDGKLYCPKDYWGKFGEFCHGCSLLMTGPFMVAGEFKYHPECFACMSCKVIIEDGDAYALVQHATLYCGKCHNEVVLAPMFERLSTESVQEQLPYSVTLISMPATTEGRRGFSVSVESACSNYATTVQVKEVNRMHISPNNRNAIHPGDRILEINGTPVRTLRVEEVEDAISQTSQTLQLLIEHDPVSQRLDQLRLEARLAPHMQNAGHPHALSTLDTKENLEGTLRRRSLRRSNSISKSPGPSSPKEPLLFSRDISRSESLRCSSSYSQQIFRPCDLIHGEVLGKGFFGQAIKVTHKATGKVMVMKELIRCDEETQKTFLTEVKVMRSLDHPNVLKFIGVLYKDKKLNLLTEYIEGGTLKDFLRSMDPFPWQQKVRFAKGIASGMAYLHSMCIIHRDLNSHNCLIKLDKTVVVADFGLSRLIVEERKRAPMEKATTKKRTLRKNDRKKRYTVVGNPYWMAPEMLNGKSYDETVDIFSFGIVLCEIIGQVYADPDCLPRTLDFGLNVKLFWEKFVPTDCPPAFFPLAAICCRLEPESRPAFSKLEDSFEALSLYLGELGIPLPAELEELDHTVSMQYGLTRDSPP
ABL1 (human), P00519 [E255K], sequence (P00519 whole entry E255K, looked up): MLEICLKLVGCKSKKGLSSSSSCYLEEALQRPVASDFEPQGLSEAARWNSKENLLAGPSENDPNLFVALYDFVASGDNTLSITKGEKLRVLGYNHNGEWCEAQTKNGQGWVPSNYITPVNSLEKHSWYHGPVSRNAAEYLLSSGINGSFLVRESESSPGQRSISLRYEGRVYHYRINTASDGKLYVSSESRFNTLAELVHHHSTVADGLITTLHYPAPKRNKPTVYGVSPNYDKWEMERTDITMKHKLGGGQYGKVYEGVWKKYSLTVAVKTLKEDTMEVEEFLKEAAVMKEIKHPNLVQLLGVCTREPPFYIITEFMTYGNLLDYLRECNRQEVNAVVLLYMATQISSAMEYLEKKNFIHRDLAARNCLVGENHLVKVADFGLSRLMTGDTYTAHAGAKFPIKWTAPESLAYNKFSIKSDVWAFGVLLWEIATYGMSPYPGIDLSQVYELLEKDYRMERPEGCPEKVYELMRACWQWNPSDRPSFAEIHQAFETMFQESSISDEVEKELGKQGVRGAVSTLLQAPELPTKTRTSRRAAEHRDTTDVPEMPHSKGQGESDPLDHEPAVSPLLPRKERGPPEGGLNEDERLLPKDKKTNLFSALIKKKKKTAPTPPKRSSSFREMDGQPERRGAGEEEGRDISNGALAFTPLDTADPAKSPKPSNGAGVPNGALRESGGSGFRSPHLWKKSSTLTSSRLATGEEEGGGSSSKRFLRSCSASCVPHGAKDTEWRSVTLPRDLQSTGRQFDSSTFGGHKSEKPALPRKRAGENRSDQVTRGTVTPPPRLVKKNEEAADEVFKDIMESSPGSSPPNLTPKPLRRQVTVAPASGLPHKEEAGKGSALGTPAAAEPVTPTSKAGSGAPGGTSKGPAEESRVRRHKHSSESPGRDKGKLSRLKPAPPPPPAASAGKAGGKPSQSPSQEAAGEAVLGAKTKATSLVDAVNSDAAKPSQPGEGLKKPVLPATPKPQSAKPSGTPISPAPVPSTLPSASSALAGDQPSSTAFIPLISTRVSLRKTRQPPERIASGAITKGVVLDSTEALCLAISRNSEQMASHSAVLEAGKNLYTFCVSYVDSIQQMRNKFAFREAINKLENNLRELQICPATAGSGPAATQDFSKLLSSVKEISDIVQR
MYLK3 (human), sequence (Q32MK0 whole entry, looked up): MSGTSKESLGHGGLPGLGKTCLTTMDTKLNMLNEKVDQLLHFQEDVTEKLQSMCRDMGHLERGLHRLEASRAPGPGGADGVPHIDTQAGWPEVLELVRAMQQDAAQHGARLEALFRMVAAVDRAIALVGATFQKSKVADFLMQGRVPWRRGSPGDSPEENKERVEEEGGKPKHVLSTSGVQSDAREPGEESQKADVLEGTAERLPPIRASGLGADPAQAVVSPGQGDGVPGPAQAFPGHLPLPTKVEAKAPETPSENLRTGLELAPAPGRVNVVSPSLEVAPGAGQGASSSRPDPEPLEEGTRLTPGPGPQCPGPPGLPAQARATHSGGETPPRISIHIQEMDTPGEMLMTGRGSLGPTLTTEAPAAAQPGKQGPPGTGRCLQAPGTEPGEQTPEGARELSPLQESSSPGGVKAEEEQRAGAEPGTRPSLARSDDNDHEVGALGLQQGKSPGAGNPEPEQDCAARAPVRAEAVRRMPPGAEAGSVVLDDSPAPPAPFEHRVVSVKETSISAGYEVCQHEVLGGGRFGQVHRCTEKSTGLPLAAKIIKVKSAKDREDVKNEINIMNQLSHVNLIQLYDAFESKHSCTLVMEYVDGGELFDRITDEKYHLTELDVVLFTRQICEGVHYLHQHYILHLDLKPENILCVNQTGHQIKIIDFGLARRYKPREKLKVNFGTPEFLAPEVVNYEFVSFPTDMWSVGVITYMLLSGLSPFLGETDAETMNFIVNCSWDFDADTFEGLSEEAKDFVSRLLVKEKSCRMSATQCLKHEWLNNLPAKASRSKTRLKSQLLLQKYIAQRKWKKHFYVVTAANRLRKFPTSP
PRKAA1 (human), sequence (Q13131 whole entry, looked up): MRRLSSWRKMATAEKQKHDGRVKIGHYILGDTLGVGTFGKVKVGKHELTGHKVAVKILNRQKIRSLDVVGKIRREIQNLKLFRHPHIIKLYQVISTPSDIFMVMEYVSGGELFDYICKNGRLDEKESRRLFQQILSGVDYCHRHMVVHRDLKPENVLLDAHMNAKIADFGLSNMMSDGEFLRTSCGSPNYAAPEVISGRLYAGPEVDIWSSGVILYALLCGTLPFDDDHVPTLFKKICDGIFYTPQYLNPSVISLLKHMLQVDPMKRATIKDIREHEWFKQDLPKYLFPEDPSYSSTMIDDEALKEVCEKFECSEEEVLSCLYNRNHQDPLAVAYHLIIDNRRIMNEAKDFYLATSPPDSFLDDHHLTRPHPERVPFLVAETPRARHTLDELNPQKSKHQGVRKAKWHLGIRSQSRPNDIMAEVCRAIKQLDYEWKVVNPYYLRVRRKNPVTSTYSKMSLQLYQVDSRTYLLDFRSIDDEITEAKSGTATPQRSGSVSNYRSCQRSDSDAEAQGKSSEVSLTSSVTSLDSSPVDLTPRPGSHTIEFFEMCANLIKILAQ
ABL1 (human), P00519 [F317I], sequence (P00519 whole entry F317I, looked up): as the sequence (P00519 whole entry E255K, looked up) above, with K255E, F317I counted along it

Cc1cnc(-c2cnc(NCCNc3ccc(C#N)cn3)nc2-c2ccc(Cl)cc2Cl)[nH]1
kinase still bound, per cent of control [1]: 100%
kinase still bound, per cent of control [2]: 100%
kinase still bound, per cent of control (ACVRL1 (human)): 100%
kinase still bound, per cent of control (ADCK4 (human)): 100%
kinase still bound, per cent of control (CAMK4 (human)): 100%
kinase still bound, per cent of control (CDK2 (human)): 54%
kinase still bound, per cent of control (CDKL2 (human)): 3.8%
kinase still bound, per cent of control (CSK (human)): 100%
kinase still bound, per cent of control (EPHB3 (human)): 100%
kinase still bound, per cent of control (ERBB4 (human)): 100%
kinase still bound, per cent of control (ERN1 (human)): 100%
kinase still bound, per cent of control [3]: 100%
kinase still bound, per cent of control (FYN (human)): 100%
kinase still bound, per cent of control (GRK1 (human)): 96%
kinase still bound, per cent of control (GRK7 (human)): 91%
kinase still bound, per cent of control (IRAK3 (human)): 100%
kinase still bound, per cent of control [4]: 87%
kinase still bound, per cent of control [5]: 86%
kinase still bound, per cent of control (LIMK2 (human)): 100%
kinase still bound, per cent of control (MAP2K1 (human)): 100%
kinase still bound, per cent of control (MAP3K1 (human)): 100%
kinase still bound, per cent of control (MAP3K13 (human)): 80%
kinase still bound, per cent of control (MAP3K3 (human)): 100%
kinase still bound, per cent of control (MAPK1 (human)): 100%
kinase still bound, per cent of control (MAPK14 (human)): 98%
kinase still bound, per cent of control (MAPK15 (human)): 68%
kinase still bound, per cent of control (MERTK (human)): 100%
kinase still bound, per cent of control (MST1R (human)): 100%
kinase still bound, per cent of control (MYLK3 (human)): 78%
kinase still bound, per cent of control (MYO3B (human)): 100%
kinase still bound, per cent of control (PIM1 (human)): 94%
kinase still bound, per cent of control (PRKAA1 (human)): 82%
kinase still bound, per cent of control (PRKD2 (human)): 100%
kinase still bound, per cent of control (SLK (human)): 63%
kinase still bound, per cent of control (SRPK2 (human)): 100%
kinase still bound, per cent of control (STK33 (human)): 100%
kinase still bound, per cent of control (TBK1 (human)): 96%
kinase still bound, per cent of control (TXK (human)): 100%
kinase still bound, per cent of control [6]: 99%
kinase still bound, per cent of control (ULK1 (human)): 94%
kinase still bound, per cent of control (ZAP70 (human)): 100%
